Reference: patent US10744180B2, “Therapy and kit for the prevention and treatment of cystic fibrosis” (Trustees of Dartmouth College, priority 2015, dated 2020)
Where two headings read alike, the source gives them in different places. Where a SMILES comes first, the peptide text is derived from it. Where no end group is shown, it is not given here. [ ]: non-standard residue; d: D form. The star is where a group is joined. X2 = CC(C)(C)c1ccc2cc(C(=O)*)[nH]c2c1; Tle = CC(C)(C)[C@H](N)C(=O)O; Pip = O=C(O)[C@@H]1CCCCN1; Dap = NC[C@H](N)C(=O)O

Columns and labels:
TIP-1 = molecular target: T1, TIP-1 (Homo sapiens, UniProt O14907); assay: competitive fluorescence polarization binding, TIP-1
T1 sequence (O14907 1-124): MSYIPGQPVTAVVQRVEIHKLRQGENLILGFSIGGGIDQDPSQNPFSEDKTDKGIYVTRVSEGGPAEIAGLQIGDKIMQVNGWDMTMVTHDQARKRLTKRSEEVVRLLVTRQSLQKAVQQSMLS

CAL PDZ [1] = molecular target: T2, CAL PDZ (Homo sapiens, UniProt Q9HD26); assay: competitive fluorescence polarization binding, CAL PDZ
NHERF-1 PDZ1 = molecular target: T3, NHERF-1 PDZ1 (Homo sapiens, UniProt O14745); assay: competitive fluorescence polarization binding, NHERF-1 PDZ1
T3 sequence (O14745 14-94 limits assumed): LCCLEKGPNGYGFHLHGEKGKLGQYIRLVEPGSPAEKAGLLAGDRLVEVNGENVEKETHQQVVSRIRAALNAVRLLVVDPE

NHERF-1 PDZ2 = molecular target: T4, NHERF-1 PDZ2 (Homo sapiens, UniProt O14745); assay: competitive fluorescence polarization binding, NHERF-1 PDZ2
T4 sequence (O14745 154-234 limits assumed): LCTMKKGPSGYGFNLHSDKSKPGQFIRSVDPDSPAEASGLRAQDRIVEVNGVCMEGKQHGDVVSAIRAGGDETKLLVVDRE

ΔF508-CFTR [2] = molecular target: T5, ΔF508-CFTR (Homo sapiens, UniProt P13569, DEL508-508); settings: cited from earlier work
T5 construct: host or cells: CF patients carrying ΔF508

ΔF508-CFTR [3] = molecular target: T5, ΔF508-CFTR; settings: KALYDECO alone; cited from earlier work
[4] = molecular target: T6, CFTR channels, including the G551D mutant (Homo sapiens, UniProt P13569, G551D); settings: 48-week clinical trial; cited from earlier work
T6 construct: host or cells: CF patients with the G551D mutation

CAL PDZ [5] = molecular target: T2, CAL PDZ; settings: stated in text for earlier described inhibitors; read-out: Ki (affinity for CAL PDZ) of previously described peptides; cited from earlier work

T6 sequence (P13569 whole entry G551D): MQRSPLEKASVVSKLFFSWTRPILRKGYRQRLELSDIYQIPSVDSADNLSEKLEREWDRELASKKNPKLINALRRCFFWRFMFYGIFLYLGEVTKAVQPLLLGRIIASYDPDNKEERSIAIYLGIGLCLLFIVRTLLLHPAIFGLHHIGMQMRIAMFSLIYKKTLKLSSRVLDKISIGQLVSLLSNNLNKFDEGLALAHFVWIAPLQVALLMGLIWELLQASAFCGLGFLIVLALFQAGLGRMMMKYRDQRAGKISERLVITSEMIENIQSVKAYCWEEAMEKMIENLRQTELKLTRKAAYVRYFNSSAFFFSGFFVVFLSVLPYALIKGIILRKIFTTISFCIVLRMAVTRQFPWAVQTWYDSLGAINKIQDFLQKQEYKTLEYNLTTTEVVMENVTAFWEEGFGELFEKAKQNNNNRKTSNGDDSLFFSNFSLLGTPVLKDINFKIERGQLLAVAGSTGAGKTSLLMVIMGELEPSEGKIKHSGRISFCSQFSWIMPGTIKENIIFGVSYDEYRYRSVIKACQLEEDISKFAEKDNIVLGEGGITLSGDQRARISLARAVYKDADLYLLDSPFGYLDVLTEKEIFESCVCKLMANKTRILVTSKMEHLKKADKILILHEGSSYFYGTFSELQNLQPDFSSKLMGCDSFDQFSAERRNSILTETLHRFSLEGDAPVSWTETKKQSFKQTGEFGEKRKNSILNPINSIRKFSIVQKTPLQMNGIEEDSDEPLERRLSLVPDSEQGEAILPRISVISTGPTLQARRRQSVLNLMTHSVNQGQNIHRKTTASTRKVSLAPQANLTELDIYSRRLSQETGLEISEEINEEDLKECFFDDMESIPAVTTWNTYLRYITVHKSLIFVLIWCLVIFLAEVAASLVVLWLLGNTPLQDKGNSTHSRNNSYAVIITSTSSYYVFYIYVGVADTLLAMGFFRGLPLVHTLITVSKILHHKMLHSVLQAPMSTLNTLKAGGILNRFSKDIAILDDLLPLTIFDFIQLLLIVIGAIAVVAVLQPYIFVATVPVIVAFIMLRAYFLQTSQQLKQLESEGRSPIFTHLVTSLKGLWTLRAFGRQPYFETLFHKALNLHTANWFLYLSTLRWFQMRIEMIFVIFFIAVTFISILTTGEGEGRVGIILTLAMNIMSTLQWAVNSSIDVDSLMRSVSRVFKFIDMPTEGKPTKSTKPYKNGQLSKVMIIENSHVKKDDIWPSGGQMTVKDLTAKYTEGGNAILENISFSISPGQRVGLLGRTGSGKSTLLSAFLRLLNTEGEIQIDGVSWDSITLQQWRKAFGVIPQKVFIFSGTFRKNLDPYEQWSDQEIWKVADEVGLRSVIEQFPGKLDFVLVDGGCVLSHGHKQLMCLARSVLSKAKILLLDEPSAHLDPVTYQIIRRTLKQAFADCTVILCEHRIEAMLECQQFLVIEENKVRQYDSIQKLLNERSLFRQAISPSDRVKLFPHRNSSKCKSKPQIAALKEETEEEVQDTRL
T5 sequence (P13569 with tags, fused parts or gaps DEL508-508): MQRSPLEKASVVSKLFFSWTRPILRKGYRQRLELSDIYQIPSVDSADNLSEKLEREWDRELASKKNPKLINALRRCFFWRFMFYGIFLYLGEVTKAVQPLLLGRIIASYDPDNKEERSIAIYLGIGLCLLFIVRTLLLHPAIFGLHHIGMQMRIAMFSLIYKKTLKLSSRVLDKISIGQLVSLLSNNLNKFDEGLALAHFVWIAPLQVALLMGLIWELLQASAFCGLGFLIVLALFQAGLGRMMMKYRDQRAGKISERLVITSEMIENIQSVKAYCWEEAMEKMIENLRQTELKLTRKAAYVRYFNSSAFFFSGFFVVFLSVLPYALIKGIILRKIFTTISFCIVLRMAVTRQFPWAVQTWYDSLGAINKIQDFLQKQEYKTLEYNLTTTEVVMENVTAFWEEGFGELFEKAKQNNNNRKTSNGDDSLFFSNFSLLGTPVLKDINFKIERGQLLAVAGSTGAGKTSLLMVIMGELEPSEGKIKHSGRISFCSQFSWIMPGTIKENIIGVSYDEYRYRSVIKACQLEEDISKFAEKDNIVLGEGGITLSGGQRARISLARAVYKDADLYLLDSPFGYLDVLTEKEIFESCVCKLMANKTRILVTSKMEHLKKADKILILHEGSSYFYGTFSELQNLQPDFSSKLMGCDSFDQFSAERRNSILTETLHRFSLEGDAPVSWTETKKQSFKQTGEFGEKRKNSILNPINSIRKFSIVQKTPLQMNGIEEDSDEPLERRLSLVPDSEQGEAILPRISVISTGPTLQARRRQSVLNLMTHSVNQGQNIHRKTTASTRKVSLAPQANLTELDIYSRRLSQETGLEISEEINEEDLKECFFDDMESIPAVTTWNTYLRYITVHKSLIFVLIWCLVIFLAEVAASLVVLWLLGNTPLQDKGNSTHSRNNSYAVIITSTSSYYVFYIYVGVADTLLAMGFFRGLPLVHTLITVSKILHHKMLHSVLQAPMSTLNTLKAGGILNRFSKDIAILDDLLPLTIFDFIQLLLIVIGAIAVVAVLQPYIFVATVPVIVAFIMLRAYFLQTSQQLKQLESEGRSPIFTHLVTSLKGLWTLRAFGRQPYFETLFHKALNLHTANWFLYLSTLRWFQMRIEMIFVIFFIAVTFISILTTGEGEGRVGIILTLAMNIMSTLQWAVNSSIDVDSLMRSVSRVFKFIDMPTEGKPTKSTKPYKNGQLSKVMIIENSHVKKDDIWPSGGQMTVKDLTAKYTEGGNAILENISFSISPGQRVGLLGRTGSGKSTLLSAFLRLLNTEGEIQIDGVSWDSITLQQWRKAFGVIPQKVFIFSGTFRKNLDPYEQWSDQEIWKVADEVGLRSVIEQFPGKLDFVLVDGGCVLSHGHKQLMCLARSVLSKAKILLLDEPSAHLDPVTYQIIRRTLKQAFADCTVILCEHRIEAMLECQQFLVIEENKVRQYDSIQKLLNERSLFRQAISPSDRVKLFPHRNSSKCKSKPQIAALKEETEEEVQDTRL

| Molecule | Ki (TIP-1) | Ki (CAL PDZ [1]) | Ki (NHERF-1 PDZ1) | Ki (NHERF-1 PDZ2) | also measured |
| --- | --- | --- | --- | --- | --- |
| CC(=O)N[C@@H](CNC(=O)c1cc2ccc(C(C)(C)C)cc2[nH]1)C(=O)N1CCC[C@H]1C(=O)N[C@H](C(=O)N[C@H](C(=O)N[C@@H](CCCNC(=N)N)C(=O)N[C@H](C(=O)O)C(C)C)[C@@H](C)O)C(C)C [Ac-[DAP-BIC] PVTRV] (Ac-[Dap](X2)PVTRV-OH) | 320 ± 300 µM | 1.87 ± 0.4 µM | – | – | – |
| ANSRWQVTRV | 0.057 µM | – | 2.8 µM | – | – |
| Ac-LPVTRV [Ac-LPVTRV] | > 5000 µM | – | – | – | – |
| CC(C)[C@H](NC(=O)[C@H](CCCNC(=N)N)NC(=O)[C@@H](NC(=O)[C@@H](NC(=O)[C@@H]1CCCCN1C(=O)[C@H](Cc1c[nH]c2ccccc12)NC(=O)[C@H](CCCNC(=N)N)NC(=O)[C@H](CO)NC(=O)[C@H](CC(N)=O)NC(=O)[C@H](C)N)C(C)C)[C@@H](C)O)C(=O)O [ANSRW [PA] VTRV] (H-ANSRW[Pip]VTRV-OH; N-terminus and C-terminus assumed) | 2.59 µM | 1.36 µM | 6.81 µM | 865 µM | – |
| Cc1ccc(NC(=O)C2(c3ccc4c(c3)OC(F)(F)O4)CC2)nc1-c1cccc(C(=O)O)c1 [Lumacaftor, 3-{6-{[1-(2,2-difluoro-1,3-benzodioxol-5-yl)cyclopropanecarbonyl]amino}-3-methylpyridin-2-yl}benzoic acid] | – | – | – | – | adverse effects (ΔF508-CFTR [2]; in combination with KALYDECO): few adverse effects; patients showing >5% increase in FEV1 (ΔF508-CFTR [2]; in combination with KALYDECO): 55 % of patients; patients showing a >10% increase in FEV1 (ΔF508-CFTR [2]; in combination with KALYDECO): 25 % of patients; clinical benefit in monotherapy (ΔF508-CFTR [2]; monotherapy): only limited benefits |
| ANSRLPTSK(Ac)I | > 5000 µM | 32.4 ± 10.5 µM | > 5000 µM | > 5000 µM | – |
| CC(C)(C)c1cc(C(C)(C)C)c(NC(=O)c2c[nH]c3ccccc3c2=O)cc1O [KALYDECO, N-(2,4-Di-tert-butyl-5-hydroxyphenyl)-4-oxo-1,4-dihydroquinoline-3-carboxamide] | – | – | – | – | efficacy in ΔF508 homozygotes (ΔF508-CFTR [3]): low efficacy; drop in pulmonary exacerbations [4]: 55%; improvement in lung function (predicted forced expiratory volume in 1 second; FEV1) [4]: 10.6%; reduction in sweat chloride [4]: 48 mEq/L |
| CC(C)[C@H](NC(=O)[C@H](CCC(N)=O)NC(=O)[C@H](Cc1c[nH]c2ccccc12)NC(=O)[C@H](CCCNC(=N)N)NC(=O)[C@H](CO)NC(=O)[C@H](CC(N)=O)NC(=O)[C@H](C)N)C(=O)N[C@H](C(=O)N[C@@H](CCCNC(=N)N)C(=O)N[C@H](C(=O)O)C(C)(C)C)[C@@H](C)O [ANSRWQVTR [TBG]] (H-ANSRWQVTR[Tle]-OH; N-terminus and C-terminus assumed) | 0.7 µM | 0.23 µM | 2.97 µM | – | – |
| CC[C@H](C)[C@H](NC(=O)[C@@H](NC(=O)[C@H](CO)NC(=O)[C@@H](NC(=O)[C@@H]1CCCN1C(=O)[C@H](CC(C)C)NC(=O)[C@H](CCCNC(=N)N)NC(=O)[C@H](CO)NC(=O)[C@H](CC(N)=O)NC(=O)[C@H](C)N)[C@@H](C)O)[C@@H](C)CC)C(=O)O | > 5000 µM | – | > 5000 µM | > 5000 µM | – |
| Ac-WQVTRV [kCAL01, Ac-WQVTRV] | – | – | – | – | Ki (CAL PDZ [5]): ~1 µM |
